The assay has as its target T1, GC-B (Rattus norvegicus, UniProt P16067).
T1 construct: rapid homologous desensitization of endogenous GC-B receptors in GH3 cells; endogenous in cells; host or cells: GH3 rat somatolactotrope cells
T1 sequence (P16067 17-1047): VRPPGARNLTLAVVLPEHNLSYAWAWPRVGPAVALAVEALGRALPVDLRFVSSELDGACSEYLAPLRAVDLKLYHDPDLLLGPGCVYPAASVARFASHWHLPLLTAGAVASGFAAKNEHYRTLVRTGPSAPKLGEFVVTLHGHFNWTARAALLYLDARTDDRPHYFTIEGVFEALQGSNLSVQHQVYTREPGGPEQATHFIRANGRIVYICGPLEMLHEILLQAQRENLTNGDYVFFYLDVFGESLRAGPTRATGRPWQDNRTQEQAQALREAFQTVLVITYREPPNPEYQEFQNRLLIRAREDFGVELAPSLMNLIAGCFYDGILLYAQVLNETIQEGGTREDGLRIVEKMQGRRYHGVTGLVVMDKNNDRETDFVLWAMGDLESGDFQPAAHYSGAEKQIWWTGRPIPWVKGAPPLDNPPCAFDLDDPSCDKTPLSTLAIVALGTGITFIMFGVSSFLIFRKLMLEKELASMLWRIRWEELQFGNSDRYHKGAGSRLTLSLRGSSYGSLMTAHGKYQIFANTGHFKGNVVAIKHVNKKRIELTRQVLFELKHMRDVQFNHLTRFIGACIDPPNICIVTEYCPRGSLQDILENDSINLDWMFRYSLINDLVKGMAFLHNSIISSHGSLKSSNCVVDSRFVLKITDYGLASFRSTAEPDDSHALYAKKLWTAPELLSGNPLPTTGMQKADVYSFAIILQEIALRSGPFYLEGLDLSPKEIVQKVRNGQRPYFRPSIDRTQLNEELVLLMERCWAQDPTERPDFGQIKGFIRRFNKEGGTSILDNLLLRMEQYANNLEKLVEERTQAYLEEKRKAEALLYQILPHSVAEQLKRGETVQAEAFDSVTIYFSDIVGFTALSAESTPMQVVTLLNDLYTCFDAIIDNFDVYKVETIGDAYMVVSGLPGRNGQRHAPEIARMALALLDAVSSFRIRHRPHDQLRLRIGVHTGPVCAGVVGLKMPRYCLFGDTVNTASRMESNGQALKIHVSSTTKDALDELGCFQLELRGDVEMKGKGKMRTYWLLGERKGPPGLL
Put plainly: Agonist-induced GC-B internalization by confocal immunofluorescence in GH3 cells. Format: cell-based. Conditions: 100 nM CNP, 0-4 h; n = 3; Fig. 5a-c. Here is the method:
GH3 cells were mounted on poly-L-lysine-coated coverslips and treated with either 0 or 100nM ANP or CNP in PSS during the indicated time points. Following treatment, cells were fixed with 4 % (w/v) formaldehyde for 10 min at room temperature and permeabilized with buffer (1 % [v/v] Tween-20 in 50 ml phosphate-buffered saline [PBS]) before incubation for 10 min at room temperature. Cells were then blocked with […] sodium azide dissolved in 92 % PBS, 3 % FCS and 5 % Tween-20 (v/v) for 20 min at room temperature, washed, then exposed to 1:200 diluted primary antibody solution (GC-A or GC-B, plus 0.1 % FCS and 0.1 % Tween-20) for 16 h at 4 °C. […] Following three PBS washes and a final 5-min PBS immersion at room temperature, the slides were mounted in Vectorshield (Vector Laboratories, Peterborough, UK) on standard VWR (VWR International, Leicestershire, UK) slides ready for analysis. A Leica SPS confocal scanning laser microscope was used to capture the staining, which was analyzed with Leica SPS software (Leica Microsystems, Milton Keynes, UK). […]
Fig. 5 Lack of ligand-dependent internalization of GC-B or GC-A in GH3 somatolactotrope cells. […] GC-A and GC-B immunoreactivity was detected by using Alexa488-conjugated secondary antibodies (green), whereas Alexa635-conjugated phalloidin was used to detect the actin cytoskeleton (red). […]

As for `CC[C@H](C)[C@@H]1NC(=O)[C@H](CCCNC(=N)N)NC(=O)[C@H](CC(=O)O)NC(=O)[C@H](CC(C)C)NC(=O)[C@H](CCCCN)NC(=O)[C@H](CC(C)C)NC(=O)CNC(=O)[C@H](Cc2ccccc2)NC(=O)[C@@H](NC(=O)CNC(=O)[C@H](CCCCN)NC(=O)[C@H](CO)NC(=O)[C@H](CC(C)C)NC(=O)CN)CSSC[C@@H](C(=O)O)NC(=O)CNC(=O)[C@H](CC(C)C)NC(=O)CNC(=O)[C@H](CO)NC(=O)[C@H](CCSC)NC(=O)[C@H](CO)NC(=O)CNC1=O` [CNP, C-type natriuretic peptide], the GC-B internalization entry is listed as “did not demonstrate any observable GC-B or GC-A internalization”.

Values taken from publication PMC3921447, “Homologous and heterologous desensitization of guanylyl cyclase-B signaling in GH3 somatolactotropes” (Cell and Tissue Research, 2013).
